One data set addresses T1, ABCC3 (Homo sapiens, UniProt O15438).
T1 construct: profiled in 60 diverse cancer cell lines (the NCI-60) using real-time RT-PCR; endogenous in cells; host or cells: NCI-60 human cancer cell lines
Description: Correlation of ABCC3 expression with drug sensitivity across the NCI-60. The format is cell-based. Particulars: Pearson correlation of ABCC3 expression with sensitivity of the 60 cell lines; 1429 compounds; inverse, p < 0.0001.

Data set [1] concerns KB-V1 cells (over-express MDR1-P-gp) vs parental KB-3-1 cells. Description: MTT assay using the KB-3-1/KB-V1 cell pair. The format is cell-based, human. As to the method:
Cell survival is measured by the MTT (3-(4,5-Dimethylthiazol-2-yl)-2,5-diphenyltetrazolium) Assay. Cells are seeded in 100 μl medium at a density of 5000 cells/well in 96 well plates, and serially diluted drug (with or without 2 μM PSC 833) is added the following day in 100 μl medium to give the indicated final concentration. Cells are then incubated for 72 hrs at 37° C. in 5% CO2, and the MTT assay is performed according to the manufacturer's instructions (Molecular Probes, Eugene, Oreg.).
To test whether our approach using the NCI-60 does, in fact, identify new substrates, an MTT assay is used to test all top-scoring compounds that were available from DTP for follow-up experiments. KB-3-1, a human carcinoma cell line, and KB-V1, a multidrug resistant derivative of KB-3-1 that over-expresses MDR1-P-gp (Shen et al., 1986, J. Biol. Chem. 261:7762-7770), are used for the tests. […] This resistance of KB-V-1 cells is invariably reversible by PSC 833. The intrinsic fluorescence of one of the compounds, NSC 634791, allows for the measurement of the effect of MDR1 activity on its export from cells.
(In general: Tetrazolium dyes change colour on reduction, which living cells bring about.)

In another data set the target is T2, ABCC7 (Homo sapiens, UniProt P13569).
T2 construct: profiled in 60 diverse cancer cell lines (the NCI-60) using real-time RT-PCR; endogenous in cells; host or cells: NCI-60 human cancer cell lines
Description: Correlation of ABCC7 expression with drug sensitivity across the NCI-60. The format is cell-based. Conditions: Pearson correlation of ABCC7 expression with sensitivity of the 60 cell lines; 1429 compounds; inverse, p < 0.0001.

The target of a further data set is T3, ABCC2 (Homo sapiens, UniProt Q92887).
T3 construct: profiled in 60 diverse cancer cell lines (the NCI-60) using real-time RT-PCR; endogenous in cells; host or cells: NCI-60 human cancer cell lines
Description: Correlation of ABCC2 expression with drug sensitivity across the NCI-60. The format is cell-based. Particulars: Pearson correlation of ABCC2 expression with sensitivity of the 60 cell lines; 1429 compounds; inverse, p < 0.0001.

Another data set concerns the target T4, ABCD1 (Homo sapiens, UniProt P33897).
T4 construct: profiled in 60 diverse cancer cell lines (the NCI-60) using real-time RT-PCR; endogenous in cells; host or cells: NCI-60 human cancer cell lines
Description: Correlation of ABCD1 expression with drug sensitivity across the NCI-60. The format is cell-based. Conditions: Pearson correlation of ABCD1 expression with sensitivity of the 60 cell lines; 1429 compounds; inverse, p < 0.0001.

Another data set deals with ABCB1 (Homo sapiens, UniProt P08183). Description: Correlation of ABCB1 expression with drug sensitivity across the NCI-60. The procedure, abridged: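 SYBR Green real-time RT-PCR on 150 ng total RNA with 250 nM primers: RT 20 min at 50 °C, then 45 cycles; expression taken as crossing-point cycle number. Correlated with drug sensitivity of 1429 compounds across the cell panel; permutation p-values with step-down and step-up (FDR q-value) multiple-testing correction.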

Molecules are shown by their SMILES.

T1 sequence (O15438 whole entry): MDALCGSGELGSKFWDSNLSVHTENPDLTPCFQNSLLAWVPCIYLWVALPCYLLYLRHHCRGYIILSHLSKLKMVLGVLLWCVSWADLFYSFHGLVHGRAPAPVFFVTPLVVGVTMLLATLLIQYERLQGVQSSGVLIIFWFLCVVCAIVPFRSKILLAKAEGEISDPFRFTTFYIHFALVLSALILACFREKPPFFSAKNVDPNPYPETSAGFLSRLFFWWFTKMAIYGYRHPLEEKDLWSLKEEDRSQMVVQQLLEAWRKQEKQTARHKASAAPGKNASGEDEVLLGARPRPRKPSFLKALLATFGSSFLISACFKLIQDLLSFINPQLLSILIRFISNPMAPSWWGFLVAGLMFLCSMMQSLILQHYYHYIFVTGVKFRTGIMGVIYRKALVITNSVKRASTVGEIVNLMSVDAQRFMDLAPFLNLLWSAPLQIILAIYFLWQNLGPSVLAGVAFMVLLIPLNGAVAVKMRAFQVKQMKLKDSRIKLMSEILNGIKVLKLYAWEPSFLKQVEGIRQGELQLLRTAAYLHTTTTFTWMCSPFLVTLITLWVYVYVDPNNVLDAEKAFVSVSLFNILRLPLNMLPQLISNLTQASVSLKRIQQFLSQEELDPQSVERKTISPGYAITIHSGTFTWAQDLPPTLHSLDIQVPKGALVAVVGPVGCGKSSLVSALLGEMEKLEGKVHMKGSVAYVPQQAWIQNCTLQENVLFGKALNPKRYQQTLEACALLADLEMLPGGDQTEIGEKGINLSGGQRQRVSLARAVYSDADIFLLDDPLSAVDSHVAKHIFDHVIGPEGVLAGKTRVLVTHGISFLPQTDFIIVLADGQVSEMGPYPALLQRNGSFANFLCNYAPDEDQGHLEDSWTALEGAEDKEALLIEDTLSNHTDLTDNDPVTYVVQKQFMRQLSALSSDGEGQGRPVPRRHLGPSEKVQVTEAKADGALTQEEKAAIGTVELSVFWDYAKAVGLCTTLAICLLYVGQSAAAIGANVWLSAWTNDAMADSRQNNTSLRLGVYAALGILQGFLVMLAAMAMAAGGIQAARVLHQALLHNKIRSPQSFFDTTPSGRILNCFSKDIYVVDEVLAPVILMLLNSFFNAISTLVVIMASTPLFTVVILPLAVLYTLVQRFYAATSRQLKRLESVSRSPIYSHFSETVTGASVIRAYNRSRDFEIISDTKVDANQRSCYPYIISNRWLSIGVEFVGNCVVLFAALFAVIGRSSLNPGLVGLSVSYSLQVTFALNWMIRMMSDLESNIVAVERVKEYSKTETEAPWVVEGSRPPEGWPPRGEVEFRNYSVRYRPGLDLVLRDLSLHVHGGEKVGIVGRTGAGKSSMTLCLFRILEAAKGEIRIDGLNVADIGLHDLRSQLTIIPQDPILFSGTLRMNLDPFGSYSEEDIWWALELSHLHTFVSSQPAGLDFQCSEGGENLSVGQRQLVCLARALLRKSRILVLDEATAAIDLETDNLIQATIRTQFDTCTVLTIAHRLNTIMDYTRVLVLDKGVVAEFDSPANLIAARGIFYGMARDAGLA
T2 sequence (P13569 whole entry): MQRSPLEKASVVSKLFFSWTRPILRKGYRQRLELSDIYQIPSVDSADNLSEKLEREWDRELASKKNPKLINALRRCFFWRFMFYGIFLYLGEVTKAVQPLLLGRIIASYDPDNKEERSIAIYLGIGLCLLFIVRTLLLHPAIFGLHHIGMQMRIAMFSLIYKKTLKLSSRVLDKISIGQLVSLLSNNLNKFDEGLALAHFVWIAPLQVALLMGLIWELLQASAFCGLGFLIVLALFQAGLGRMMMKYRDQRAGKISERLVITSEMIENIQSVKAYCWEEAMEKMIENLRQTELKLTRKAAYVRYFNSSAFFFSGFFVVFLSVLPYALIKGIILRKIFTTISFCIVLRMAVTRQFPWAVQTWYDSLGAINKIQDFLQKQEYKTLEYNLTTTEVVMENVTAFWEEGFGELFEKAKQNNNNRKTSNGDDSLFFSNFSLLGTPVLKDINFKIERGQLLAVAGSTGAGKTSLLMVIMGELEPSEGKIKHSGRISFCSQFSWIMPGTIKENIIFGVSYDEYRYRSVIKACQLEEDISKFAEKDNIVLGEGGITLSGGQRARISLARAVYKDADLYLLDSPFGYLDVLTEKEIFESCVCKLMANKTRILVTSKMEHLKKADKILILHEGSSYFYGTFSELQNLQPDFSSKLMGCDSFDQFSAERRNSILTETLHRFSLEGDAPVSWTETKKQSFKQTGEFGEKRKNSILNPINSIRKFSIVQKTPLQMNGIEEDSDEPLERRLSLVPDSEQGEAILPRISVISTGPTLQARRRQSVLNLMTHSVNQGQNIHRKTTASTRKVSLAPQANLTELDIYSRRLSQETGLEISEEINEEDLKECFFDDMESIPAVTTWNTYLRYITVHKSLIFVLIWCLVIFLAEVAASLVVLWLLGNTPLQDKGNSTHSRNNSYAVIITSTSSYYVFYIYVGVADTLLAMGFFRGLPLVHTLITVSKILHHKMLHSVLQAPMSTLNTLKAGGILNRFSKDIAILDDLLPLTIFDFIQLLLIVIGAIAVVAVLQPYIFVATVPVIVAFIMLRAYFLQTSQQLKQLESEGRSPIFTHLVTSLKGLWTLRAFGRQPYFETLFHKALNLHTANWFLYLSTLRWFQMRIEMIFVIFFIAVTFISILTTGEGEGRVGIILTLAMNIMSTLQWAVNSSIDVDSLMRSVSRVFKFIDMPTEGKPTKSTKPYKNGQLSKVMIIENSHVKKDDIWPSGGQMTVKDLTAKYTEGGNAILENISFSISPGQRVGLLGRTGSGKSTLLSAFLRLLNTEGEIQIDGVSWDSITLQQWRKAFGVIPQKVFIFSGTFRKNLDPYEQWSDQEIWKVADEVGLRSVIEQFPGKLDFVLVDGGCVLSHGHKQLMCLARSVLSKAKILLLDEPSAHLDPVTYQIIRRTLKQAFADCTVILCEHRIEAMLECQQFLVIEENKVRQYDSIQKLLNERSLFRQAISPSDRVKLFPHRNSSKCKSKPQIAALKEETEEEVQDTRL
T3 sequence (Q92887 whole entry): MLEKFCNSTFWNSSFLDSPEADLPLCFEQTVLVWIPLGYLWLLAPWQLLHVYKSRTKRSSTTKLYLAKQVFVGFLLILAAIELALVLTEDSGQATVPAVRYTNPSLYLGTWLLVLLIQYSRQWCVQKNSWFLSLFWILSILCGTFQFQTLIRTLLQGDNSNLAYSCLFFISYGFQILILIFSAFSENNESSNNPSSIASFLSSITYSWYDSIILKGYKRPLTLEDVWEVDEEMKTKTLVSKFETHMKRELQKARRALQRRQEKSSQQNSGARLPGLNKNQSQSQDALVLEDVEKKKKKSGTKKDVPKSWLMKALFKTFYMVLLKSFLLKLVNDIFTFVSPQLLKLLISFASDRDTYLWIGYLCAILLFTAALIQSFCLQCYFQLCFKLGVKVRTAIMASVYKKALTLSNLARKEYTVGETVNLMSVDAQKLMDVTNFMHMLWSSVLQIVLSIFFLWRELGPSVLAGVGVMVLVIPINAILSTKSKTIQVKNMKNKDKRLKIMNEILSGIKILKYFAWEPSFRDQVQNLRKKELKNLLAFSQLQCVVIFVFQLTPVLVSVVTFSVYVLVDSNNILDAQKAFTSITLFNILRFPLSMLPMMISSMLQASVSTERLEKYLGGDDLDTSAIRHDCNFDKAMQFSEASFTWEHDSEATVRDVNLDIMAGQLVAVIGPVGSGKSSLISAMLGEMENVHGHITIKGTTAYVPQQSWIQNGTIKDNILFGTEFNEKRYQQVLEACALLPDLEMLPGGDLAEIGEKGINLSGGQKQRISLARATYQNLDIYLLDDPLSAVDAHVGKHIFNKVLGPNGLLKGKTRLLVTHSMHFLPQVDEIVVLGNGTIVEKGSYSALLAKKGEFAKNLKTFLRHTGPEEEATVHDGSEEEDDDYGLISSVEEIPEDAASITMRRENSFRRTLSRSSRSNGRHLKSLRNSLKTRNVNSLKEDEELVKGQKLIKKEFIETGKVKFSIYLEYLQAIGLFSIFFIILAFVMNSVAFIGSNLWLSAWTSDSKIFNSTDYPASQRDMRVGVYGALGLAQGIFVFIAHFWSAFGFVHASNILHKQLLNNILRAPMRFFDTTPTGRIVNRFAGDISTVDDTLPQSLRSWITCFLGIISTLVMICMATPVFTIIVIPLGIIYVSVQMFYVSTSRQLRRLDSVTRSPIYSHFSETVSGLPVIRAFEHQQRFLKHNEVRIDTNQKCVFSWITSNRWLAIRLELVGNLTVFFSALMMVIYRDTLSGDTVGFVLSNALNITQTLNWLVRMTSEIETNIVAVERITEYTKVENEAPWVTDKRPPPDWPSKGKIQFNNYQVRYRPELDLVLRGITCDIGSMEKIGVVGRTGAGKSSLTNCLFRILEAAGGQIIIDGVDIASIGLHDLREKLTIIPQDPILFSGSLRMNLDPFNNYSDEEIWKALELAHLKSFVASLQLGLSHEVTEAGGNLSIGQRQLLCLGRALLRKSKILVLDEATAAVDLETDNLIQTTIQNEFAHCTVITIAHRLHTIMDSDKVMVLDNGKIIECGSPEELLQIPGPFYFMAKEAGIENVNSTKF
Description for ABCC2: (§1) Expression levels are measured by real-time quantitative RT-PCR using the LightCycler RNA Amplification SYBR Green kit and a LightCycler machine (Roche Biochemicals, Indianapolis, Ind.). […] When possible, the amplicons are designed to encompass exon-intron boundaries to avoid amplification of genomic DNA. Since the Syber Green assay detects accumulation of double stranded DNA, primers are selected (from a battery consisting of about 200 primers) that amplified a single product of the correct size.
(§2) RT-PCR is carried out on 150 ng total RNA, in the presence of 250 nM specific primers. Following reverse transcription (20 min at 50° C.), the PCR reaction consists of 45 cycles of denaturation (15 sec at 95° C.), annealing (30 sec at 58° C.), and elongation (30 sec at 72° C.). No-template (water) reaction mixtures are prepared as negative controls.
(§3) During PCR amplification, fluorescence emission is measured and recorded in real time by the LightCycler. Crossing point values are calculated, using the LightCycler software package, by the Fit Points analysis method, with baseline fluorescence set at 1. The SyberGreen assay measures accumulation of double-stranded products, and the appearance of primer dimers limits quantitation at high cycle numbers. The specificity of amplified products is verified by melting-curve analysis and agarose gel electrophoresis (not shown). The raw results are expressed as number of cycles to reach the crossing point. If the desired product is not detected, the corresponding value is adjusted to crossing points indicating no expression. To assess the contribution of experimental artifacts, selected cell lines are assessed in replicate.
(§4) The two are combined to form a joint dataset that includes 1429 compounds.
(§5) To determine quantitatively how well the 47 genes cluster the cell lines by their tissues of origin, a statistical method is employed wherein the kappa statistic is used to indicate how well the observed clusters correspond to the nine tissue-of-origin classifications. […] To control the overall false type 1 error rate, both a step-down procedure (Westfall and Young, 1993, Resampling-Based Multiple Testing: Examples and Methods for p-value Adjustment (New York: Wiley)) and a step-up procedure (Reiner et al., 2003, Bioinformatics 19:368-375) were employed to adjust for multiple testing of all 47 genes simultaneously. In the Benjamini-Hochberg procedure the p-values are computed in the standard way by permutation, assuming that all distributions are exchangeable: the number of values in the permuted data with correlations over a threshold, divided by the number of compounds and by the number of permutations. In this analysis, the False Discovery Rate (q-value) at which each compound would be declared was calculated using the step-up procedure for positively correlated test statistics (again true because all correlations being compared are computed against the same ABC gene): in this procedure the first q-value for the largest correlation is the Bonferroni-corrected p-value for that gene; then further q-values are calculated as qj=max(pj*1429/j, qj-1). This procedure limits the expected proportion of false positives in the list 1, . . . , j to at most qj.
Description for ABCC3: as §1, §2, §3, §4, §5
Description for ABCC7: as §1, §2, §3, §4, §5
Description for ABCD1: as §1, §2, §3, §4, §5

Turning to `CC(C)(C)NNc1c([N+](=O)[O-])cnn(-c2ccccc2)c1=O` [NSC 641820], the Correlation on ABCC3 is −0.3991.
For the molecule `COc1ccc(NC(=S)N=Nc2c(O)[nH]c3c(Cl)cc(Cl)cc23)cc1` [NSC 73304], in data set [1] (MTT assay with 2 μM PSC 833), the “Effect of PSC 833 on the heightened sensitivity of KB-V1 cells” value is “completely reverses sensitivity”. The “Sensitivity of KB-V1 cells relative to parental KB-3-1 (potentiation by ABCB1)” value in data set [1] (MTT assay, 72 hrs) is given as “several-fold more sensitive”.
Take `CC(=O)Oc1c2ccsc2c(OC(C)=O)c2ccsc12` [NSC 695914]: on ABCC7, the Correlation was −0.4297.
The molecule `COc1cccc2c1C(=O)C=CC2=O` [NSC 618315] came in with a Correlation at ABCC2 of −0.4247.
Still for that read-out and setting: the figure for `CC(C)Cc1ccc(C(C)/C=C2\CCC(CN3CCOCC3)C2=O)cc1.Cl` (centres unmarked) [NSC 639976] is −0.4670; for `CN(C)CCC(=O)N1C/C(=C\c2ccc(Cl)c(Cl)c2)C(=O)/C(=C/c2ccc(Cl)c(Cl)c2)C1.Cl` [NSC 638645] it is −0.5028.
At ABCC3, `O=C(CC(=O)c1ccccc1NC1=Cc2ccccc2C(=O)C1=O)C(=O)NC1=C(Cl)C(=O)c2ccccc2C1=O` [NSC 641245] registered a Correlation of −0.5702.
Turning to `NC(=S)N=Nc1c(O)[nH]c2c(Cl)cc(Cl)cc12` [NSC 73305], the “Effect of PSC 833 on the heightened sensitivity of KB-V1 cells” value in data set [1] (MTT assay with 2 μM PSC 833) was “completely reverses sensitivity”. For the same molecule, the “Sensitivity of KB-V1 cells relative to parental KB-3-1 (potentiation by ABCB1)” value in data set [1] (MTT assay, 72 hrs) is recorded as “several-fold more sensitive”.
At ABCC7, `COc1ccc(O)c2c(=O)c3c(OC)cc4c(c3oc12)[C@@H]1C=CO[C@@H]1O4` [NSC 178249] showed a Correlation of −0.5603.
With `O=C1c2cccc(NCCNCCO)c2C(=O)c2cccc(NCCNCCO)c21` [NSC 363997], the “Effect of PSC 833 on the resistance of KB-V1 cells” value in data set [1] (MTT assay with 2 μM PSC 833) is on record as “reverses the resistance”. For the same molecule, in data set [1] (MTT assay, 72 hrs), the “Resistance of KB-V1 cells in comparison with the parental line” value was “resistant”.
Regarding `CC1CSC(=S)N1C(=O)N1C(=S)SCC1C` (centres unmarked) [NSC 654968], on ABCC7, the Correlation is recorded as −0.5519.
Molecule `CCN(CC)CC(O)CNc1ccc(NCC2CO2)c2c1C(=O)c1ccccc1C2=O` (centres unmarked) [NSC 639366] returned a Correlation on ABCC3 of −0.5003.
At ABCC2, `CC1=NN(c2nc(N)nc(CBr)n2)C(C)(C)C1` [NSC 696916] came in with a Correlation of −0.4224.
For `COc1cc2cc[n+]3c(c2cc1OC)C(=O)c1ccccc1-3` [NSC 627787], the Correlation on ABCC7 is given as −0.5471.
`CCOC(=O)c1oc2cc3c(c4c2c1-c1ccccc1N4C)C=CC(C)(C)O3` [NSC 693215] returned a Correlation on ABCC2 of −0.4377.
At ABCC3, `CC(=O)NC1=CC(=O)c2cc(C)cc(O)c2C1=O` [NSC 658450] showed a Correlation of −0.5526.
In the case of `CCCCCCOc1ccc(C(=O)NO)cc1` [NSC 692754], the Correlation at ABCD1 was −0.4680; at ABCC2 it was −0.4016. Also, the “Pearson's Correlation Coeff” value at ABCB1 was 0.4616.
As for `COC(=O)CCC(=O)NC1=C(Nc2ccc(OC)cc2)C(=O)c2ccccc2C1=O` [NSC 670766], the Correlation on ABCC7 is −0.4378.
Regarding `O=[N+]([O-])c1cccc(/C=N/Nc2ccc3ccccc3n2)c1O` [NSC 168468], the “Effect of PSC 833 on the heightened sensitivity of KB-V1 cells” value in data set [1] (MTT assay with 2 μM PSC 833) is on record as “completely reversed sensitivity”. Also, the “Sensitivity of KB-V1 cells relative to parental KB-3-1 (potentiation by ABCB1)” value in data set [1] (MTT assay, 72 hrs) was “equivalent to or greater than the potentiation effect observed for NSC 73306”. On ABCB1, the “Correlation of antiproliferative activity with ABCB1 expression” value stood at 0.4839.
For `Cn1c(=O)nc2n(-c3ccc(Cl)cc3)c3cc(Cl)ccc3nc-2c1=O` [NSC 627991], on ABCC3, the Correlation is −0.4741.
The molecule `CC(C)Cc1ccc(C(C)/C=C2\CCC(CN3CCCCC3)C2=O)cc1.Cl` (centres unmarked) [NSC 639978] gave a Correlation on ABCC2 of −0.5210.
On ABCC3, `CCOC(=O)/C(C#N)=C/c1ccc2c(c1)CC1(C2)Cc2cc(CC)c(C(C)O)cc2C1` (centres unmarked) [NSC 670289] displayed a Correlation of −0.3824.
As to `CC1(C)OC2C(CO[Si](C)(C)C(C)(C)C)OC(n3cnc4c(N)nc(C#C[Si](C)(C)C)nc43)C2O1` (centres unmarked) [NSC 687496], the Correlation on ABCC2 is −0.4544.
Still for that read-out and setting: then `COc1cc(/C=C2\CCC(CN(C)C)C2=O)ccc1OC(=O)c1ccccc1.Cl` (centres unmarked) [NSC 639518], with −0.4350; and `Cc1ccc(C2=CC(=O)/C(=C\C(=O)c3ccc(Br)cc3)O2)c(C)c1` [NSC 674919], with −0.4608.
